What was measured:
[1] = tested on: rat myocardial infarct model; experiment: Mortality / survival in rat myocardial infarct model of heart failure; type: in vivo, rats
Description: (§1) In another study, a similar rat myocardial infarct model as above was used in order to assess the therapeutic potential of MA in heart failure.
(§2) Methods: From day 14 after surgery (LAD occlusion), rats received frusemide. On day 42, rats were randomized to receive 26 weeks treatment with placebo (PL: n=38), ramipril (n=38, 1 mg/kg/d), the standard MA formulation (MA-I: n=37) or a new nanocristal MA formulation (MA-II: n=40, both 100 mg/kg/d) until sacrifice, Cardiac function was assessed using echocardiography. Additionally, body composition was analyzed boy NMR-scanning, and in a subgroup cardiac function was assessed by MRI scanning and invasive hemodynamics.

[2] = tested on: rat myocardial infarct model; experiment: Cardiac function (echocardiography) in rat myocardial infarct model; type: in vivo, rats; details: 26 weeks treatment
Description: as §1, §2

[3] = Body weight, body composition (NMR-scanning) and tibia length in rat myocardial infarct model; type: in vivo, rats; details: 26 weeks treatment
Description: as §1, §2

[4] = tested on: lung of infarction surgery rats; experiment: Lung wet weight and amount of liquid in the lung in rat infarct model; type: in vivo, Male Wistar-rats
Description: (§3) An animal study was carried out, wherein a ligation of the left coronary artery was performed in 140 animals. For control 20 animals were operated without coronary ligature (sham-surgery). Two weeks after surgery, therapy was started. Therefore, the animals were treated with a diuretic (furosemide, in average 10 per kg in drinking water). After six weeks double-blind randomised therapy with either placebo, old or new megestrol acetate (from day 42 on using gavage, 100 mg per kg) or ACE-inhibitor (Ramipril®, 1 mg per kg per day) was started. The infarct groups consisted of 38 animal each for Ramipril® and placebo, 37 for MA-1 and 40 for MA-II, as well as 5 animals per sham group. During the therapy animals were weighed twice a week. On day 224 after surgery animals were sacrificed and the lung was analyzed regarding weight and histopathology.
The animals underwent surgical treatment at a weight of about 210-220 g. In order to produce a heart insufficiency the inventors performed the surgical treatment in accordance with an infarction model that was already used in several prior studies. […]
(§4) After the surgery, the animals were controlled and the weight was analysed twice a week during the whole study. […]

[5] = Weight determinations in rat infarct model of chronic heart insufficiency; type: in vivo, Male Wistar-rats; details: day 224 after surgery
Description: as §3
Male Wistar-rats (Dimed GmbH, Schönwalde, Germany) were held in an environment controlled animal facility having a constant temperature of 23° C. in a 12 hour day-night-cycle.
(§5) The animals underwent surgical treatment at a weight of about 210-220 g. In order to produce a heart insufficiency the inventors performed the surgical treatment in accordance with an infarction model that was already used in several prior studies. The heart infarction is produced according to a slightly modified method described by Selye et al. [Selye H, Bajusz E, Grassos S, Mendel P. Simple techniques for the surgical occlusion of coronary vessels in the rat. Angiology 1960; 11: 398-407] by ligation of the LAD.
Each rat was anaesthetised by i.p. chloralhydrate (Merck, Darmstadt, Germany) and was subsequently incubated with a PE-catheter (1.2 mm diameter) and respirated using a Rodent-respirator V5K6 (NarcoBio Systems, Houston, Tex., USA). During the whole operation an ECG was performed as control. The thorax was opened, the heart was prepared and a ligature using Ethibond-suture material 7/0 (Ethicon GmbH Norderstedt, Germany) was made in position of the left coronary artery (LAD). Since the coronary arteries during this process can not be viewed by the naked eye, the orientation occurred anatomically based on the position of the heart and the visible coronary veins. The success of the infarction could be visually verified based on the occurring paleness, cyanosis and mobility distortion. Subsequently, the thorax was closed. […]
as §4
During the progression of both studies; the animals were weight-determined twice a week, starting from the date of surgery (laboratory balance model CS2000. Ohaus Corporation, Pine Brook, N.J., USA). The results were calculated corresponding to the post-surgical day of the respective animal. […]

[6] = tested on: lung of infarction surgery rats; experiment: Histopathology of the lungs in rat infarct model; type: in vivo, Male Wistar-rats
Description: as §3, §5
Each rat was anaesthetised by i.p. chloralhydrate (Merck, Darmstadt, Germany) and was subsequently incubated with a PE-catheter (1.2 mm diameter) and respirated using a Rodent-respirator V5K6 (NarcoBio Systems, Houston, Tex., USA). During the whole operation an ECG was performed as control. The thorax was opened, the heart was prepared and a ligature using Ethibond-suture material 7/0 (Ethicon GmbH Norderstedt, Germany) was made in position of the left coronary artery (LAD). Since the coronary arteries during this process can not be viewed by the naked eye, the orientation occurred anatomically based on the position of the heart and the visible coronary veins. The success of the infarction could be visually verified based on the occurring paleness, cyanosis and mobility distortion. Subsequently, the thorax was closed. The respiration was ended, once a stable ECG was reached. 20 rats were used as control animals and were surgically treated in the same manner as the infarction animals. No coronary ligature was introduced in these animals (sham-surgery).
After the surgery, the animals were controlled and the weight was analysed twice a week during the whole study. From day 14 on, the animals received furosemide, accompanied from day 42 on with either placebo, ACE-inhibitor, MA-I or MA-TI. On day […] post-surgery the animals were randomised and segregated into the respective groups. During therapy animals were weighted twice a week and on day 224 post-surgery animals were sacrificed to analyze organs.
MA-I, MA-II, ACE-inhibitor (Ramipril®) or control substances were administered to the animals via gavage. Depending on the time of surgery, the animals were gavaged stating from week six after the in infarction surgery once a day, whereby the amount of gavage was adjusted to the weight (100 mg MA-I/kg body weight per day, 1 ml solution contains 40 mg MA-I or MA-II or placebo, respectively).
In the 32st week post-surgery, the surviving animals were anaesthetised using chloralhydrate i.p. […] body weight (Sigma-Aldrich Chemie GmbH, Deisenhofen, Germany). Following the preparation of the subscapular brown fatty tissue, lapratomisation was performed and blood was drawn from the aorta abdominalis into EDTA-flushed 10 ml syringes (Roth, Karlsruhe, Germany) and added to pre-chilled 12 ml-tubes (Sarstedt, Nümbrecht, Germany). The following parts were removed completely or partially: lung, heart, liver, kidneys, renal glands, inguinal fatty tissue, epididymal fatty tissue, gastrocnemius, and brain. […]

[7] = infarct animals, around the great respiratory tracts, day 224
[8] = infarct animals, great respiratory tracts, day 224

Compound: CCOC(=O)[C@H](CCc1ccccc1)N[C@@H](C)C(=O)N1[C@H](C(=O)O)C[C@@H]2CCC[C@@H]21 [Ramipril]
- Mortality ([1]; 26 weeks treatment from day 42, MA 100 mg/kg/d, ramipril 1 mg/kg/d): 13%
- CO/BW [2]: 178 ± 8^$ ml/min/kg
- EF [2]: 40 ± 2%
- Body weight, end of study ([3]; MA 100 mg/kg/d, ramipril 1 mg/kg/d, in g): 575 ± 8
- Fat/tibia ([3]; NMR-scanning): 45.3 ± 5.9 g/cm
- Lean/tibia ([3]; NMR-scanning): 83.2 ± 2.5 g/cm
- tibia length ([3]; retarded growth): 4.3 cm
- average weight of the liquid in the lung [4]: 2396 mg
- average wet weight of the lung [4]: 3103 ± 281 mg
- Weight of animals normalised to tibia length at the end of the study (mean) ([5]; infarct animals): 133.2 g/cm tibia
- Weight of animals at the end of the study (mean) ([5]; infarct animals, gavage from day 42, MA 100 mg/kg/d, ramipril 1 mg/kg/d): 575.0 g
- Weight of animals at the end of the study (mean) ([5]; sham-surgery animals): 567.2 g
- Weight of animals normalised to tibia length at the end of the study (mean) ([5]; sham-surgery animals): 135.0 g/cm tibia
- Inflammation: number of animals graded little [6, 7]: 1
- Inflammation: number of animals graded medium [6, 7]: 2
- Inflammation: number of animals graded strong [6, 7]: 2
- Inflammation: number of animals graded very strong [6, 7]: 18
- Mucus goblet cells: number of animals graded medium [6, 8]: 7
- Mucus goblet cells: number of animals graded strong [6, 8]: 6
- Mucus goblet cells: number of animals graded very strong [6, 8]: 10
- Emphysema: number of animals graded little ([6]; infarct animals, lung, day 224): 3
- Emphysema: number of animals graded medium ([6]; infarct animals, lung, day 224): 6
- Emphysema: number of animals graded none ([6]; infarct animals, lung, day 224): 8
- Emphysema: number of animals graded strong ([6]; infarct animals, lung, day 224): 4
- Emphysema: number of animals graded very strong ([6]; infarct animals, lung, day 224): 2
- Fibrosis: number of animals graded little ([6]; infarct animals, lung, day 224): 5
- Fibrosis: number of animals graded medium ([6]; infarct animals, lung, day 224): 4
- Fibrosis: number of animals graded none ([6]; infarct animals, lung, day 224): 12
- Fibrosis: number of animals graded strong ([6]; infarct animals, lung, day 224): 2

Compound: 17-α-acetoxy-6-methylpregna-4,6diene-3,20-dione [Megestrol acetate]
- survival in infarction surgery rats ([1]; in comparison to placebo): significantly improved the survival
- inflammation and mucus goblet cells of the lung (histopathology, in words) ([6]; infarct rats, vs placebo and Ramipril groups): a reduction in the number of mucus goblet cells and a reduced inflammation of the lung

From patent US20080269179A1, “Use of Megestrol Acetate for the Treatment of Obstructive Pulmonary Diseases” (priority 2005, published 2008)
